target: human CCR2 (Homo sapiens, UniProt P41597); test: CCR2 functional calcium assay (FLIPR calcium flux, hMCP-1 challenge); format: cell-based; parameters: expressed in transfected cells; host or cells: HEK293 EBNA cells; details: HEK293 EBNA cells transfected with human CCR2, hMCP-1 challenge; read-out: Functional CCR2 fKi
Text: The CCR2 receptor couples through the Gi/Gq signaling pathway and results in activation of calcium mobilization. The functional activity of test compounds was routinely tested by measuring the ability of compounds to antagonize CCR2 activity in a dose dependent manner, in HEK293 EBNA cells transfected with the human CCR2 receptor (hMCP-1 challenge), using a calcium flux Fluorescent Imaging Plate Reader FLIPR assay. Non-transfected HEK293 EBNA cells were used as control of non-specific response.
Briefly, test compounds were dissolved in dimethyl sulfoxide (DMSO) to a concentration of 10 mM and stored in matrix screenmate racks. The required amount of compound was transferred to 96-well compound plates on the day of assay and diluted in assay buffer to the required final concentration; dose-response measurements were assayed by making 1:3 serial dilutions to produce 10 point curves. The compounds were then transferred to 384-well assay plates ready for use. Top concentrations were adjusted depending on the potency of the compounds with a typical concentration range of 30 μM to 0.5 nM being used. The assay buffer used was HBSS buffer supplemented with 20 mM HEPES and 0.1% BSA, pH7.4. The loading/wash buffers were the same as the assay buffer.
Cells were suspended in culture medium at a density of 10000 cells/50 μl (the cell culture media composition was DMEM high glucose supplemented with 10% dialyzed FBS, 250 μg/ml Geneticin, and 400 μg/ml Hygromycin B), transferred to 384-well black/clear Costar plates (Costar #3712) (50 μl/well) and incubated at 37° C., in a 5% CO2/95% air humidified incubator for 16 h. The cells were washed with assay buffer at 37° C. using the Biotek ELx 405, washing 3 times, leaving 20 μl buffer in the well. 20 μl Fluo-4 (Fluo-4 stock solution (1 mM) was prepared by dissolving one vial of Fluo-4 (50 μg) in 45 μl of pluronic acid (240 mg/ml in DMSO). This stock solution of Fluo-4 was then diluted 250 times with loading buffer to give a Fluo-4 concentration of 4 μM. The dye solution (used within 2 h and kept away from light) was added to each well using a repeating multichannel pipette; the cells were then incubated at 37° C. for 60 min. Following the incubation, cells were washed in assay buffer at 37° C. using the Biotek ELx 405, washing 3 times, leaving 40 μl in each well and incubated for 10 min at 37° C. before use. A combined agonist/antagonist protocol was used. Compound (antagonist) was added to the cell plate using the FLIPR. Basal fluorescence was recorded every second for 10 seconds prior to compound addition (10 μl) and fluorescence recorded every second for 1 minute then every 6 seconds for a further 1 minute. Agonist (MCP-1) was then added using the FLIPR and fluorescence recorded as described above.
The positive control (agonist) was human recombinant MCP-1 which was stored as a stock concentration of 10 μM in distilled water and stored at −20° C. (maximal response: 30 nM; EC50 dose: 3-5 nM). The reference compound (antagonist) was RS102895 which was used as a 10 mM DMSO solution and stored at −20° C.
FLIPR responses were measured as peak minus basal fluorescence intensity and were expressed as a percentage of EC50 MCP-1 challenge. Curve-fitting and parameter estimation were carried out using GraphPad Prism 4.0 (GraphPad Software Inc., San Diego, Calif.).

Chain of human CCR2 (P41597 whole entry): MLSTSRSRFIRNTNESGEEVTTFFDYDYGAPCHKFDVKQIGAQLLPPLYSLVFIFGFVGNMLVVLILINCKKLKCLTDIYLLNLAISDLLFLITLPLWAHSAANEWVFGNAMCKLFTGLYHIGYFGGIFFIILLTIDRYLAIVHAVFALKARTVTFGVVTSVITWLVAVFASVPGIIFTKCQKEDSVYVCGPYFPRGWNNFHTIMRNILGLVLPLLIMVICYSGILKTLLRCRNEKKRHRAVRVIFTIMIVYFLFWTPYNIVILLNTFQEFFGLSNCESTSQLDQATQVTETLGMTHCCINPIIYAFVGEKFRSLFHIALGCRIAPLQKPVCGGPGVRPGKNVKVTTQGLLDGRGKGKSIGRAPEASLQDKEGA

Molecule | Ki [µM]
COC(=O)c1nc2ccnn2c(O)c1Oc1ccc(Cl)c(Cl)c1 [Example 89, Methyl 6-(3,4-dichlorophenoxy)-7-hydroxypyrazolo[1,5-a]pyrimidine-5-carboxylate] | < 0.01
CCc1nc2ccnn2c(O)c1Cc1cc(F)c(F)c(F)c1 [Example 13, 5-Ethyl-6-[(3,4,5-trifluorophenyl)-methyl]pyrazolo[1,5-a]pyrimidin-7-ol] | < 0.01
CCc1nc2ccnn2c(O)c1Cc1cc(F)cc(F)c1 [Example 12, 6-[(3,5-difluorophenyl)methyl]-5-ethyl-pyrazolo[1,5-a]pyrimidin-7-ol] | < 0.01
Cc1nc2ccnn2c(O)c1Cc1ccc(F)c(C#N)c1 [Example 8, 2-Fluoro-5-({7-hydroxy-5-methylpyrazolo-(1,5-a]pyrimidin-6-yl}methyl)benzonitrile] | 0.1 to 1
CCOC(=O)c1nc2ccnn2c(O)c1Cc1cccc(C(F)(F)F)c1 [Example 71, Ethyl 7-hydroxy-6-{[3-(trifluoromethyl)-phenyl]methyl}pyrazolo[1,5-a]pyrimidine-5-carboxylate] | 0.01 to 0.1
Cc1nc2c(C(=O)N(C)C)cnn2c(O)c1Cc1ccc(Cl)cc1 [Example 100, 6-[(4-Chlorophenyl)methyl]-7-hydroxy-N,N,5-trimethylpyrazolo[1,5-a]pyrimidine-3-carboxamide] | 0.1 to 1
Oc1c(Cc2ccc(Cl)c(Cl)c2)c(C2CCC2)nc2ccnn12 [Example 50, 5-Cyclobutyl-6-[(3,4-dichlorophenyl)-methyl]pyrazolo[1,5-a]pyrimidin-7-ol] | < 0.01
CCc1nc2c(C(=O)NCCOC)cnn2c(O)c1Cc1ccc(Cl)cc1 [Example 117, 6-[(4-Chlorophenyl)methyl]-5-ethyl-7-hydroxy-N-(2-methoxyethyl)pyrazolo-[1,5-a]pyrimidine-3-carboxamide] | 0.01 to 0.1
Oc1c(Cc2ccc(Cl)c(Cl)c2)c(C(F)(F)F)nc2ccnn12 [Example 55, 6-[(3,4-Dichlorophenyl)methyl]-5-(trifluoromethyl)pyrazolo[1,5-a]pyrimidin-7-ol] | < 0.01
CCOC(=O)c1nc2ccnn2c(O)c1Cc1ccc(Cl)c(F)c1 [Example 74, Ethyl 6-[(4-chloro-3-fluorophenyl)methyl]-7-hydroxy pyrazolo[1,5-a]pyrimidine-5-carboxylate] | < 0.01
Oc1c(Cc2ccc(OC(F)(F)F)cc2)c(C2CC2)nc2ccnn12 [Example 19, 5-Cyclopropyl-6-{[4-(trifluoromethoxy)-phenyl]methyl}pyrazolo[1,5-a]pyrimidin-7-ol] | 0.01 to 0.1
Cc1nc2ccnn2c(O)c1Sc1cccc(F)c1 [Example 77, 6-[(3-Fluorophenyl)sulfanyl]-5-methyl-pyrazolo[1,5-a]pyrimidin-7-ol] | 0.1 to 1
Cc1noc(-c2nc3ccnn3c(O)c2Cc2cccc(F)c2)n1 [Example 92, 6-[(3-Fluorophenyl)methyl]-5-(3-methyl-1,2,4-oxadiazol-5-yl)pyrazolo[1,5-a]pyrimidin-7-ol] | 0.1 to 1
COC(=O)c1nc2ccnn2c(O)c1Cc1ccc(Cl)c(Cl)c1 [Example 83, Methyl 6-[(3,4-dichlorophenyl)methyl]-7-hydroxypyrazolo[1,5-a]pyrimidine-5-carboxylate] | < 0.01
COCCNC(=O)c1cnn2c(O)c(Cc3ccc(Cl)c(Cl)c3)c(C)nc12 [Example 115, 6-[(3,4-Dichlorophenyl)methyl]-7-hydroxy-N-(2-methoxyethyl)-5-methylpyrazolo-[1,5-a] pyrimidine-3-carboxamide] | 0.01 to 0.1
Oc1c(Cc2cccc(OC(F)(F)F)c2)c(C2CC2)nc2ccnn12 [Example 20, 5-Cyclopropyl-6-{[3-(trifluoromethoxy)-phenyl]methyl}pyrazolo[1,5-a]pyrimidin-7-ol] | 0.01 to 0.1
CCOC(=O)c1nc2ccnn2c(O)c1Cc1cccc(F)c1 [Example 73, Ethyl 6-[(3-fluorophenyl)methyl]-7-hydroxypyrazolo[1,5-a]pyrimidine-5-carboxylate] | 0.1 to 1

Molecule | Ki [µM]
CCc1nc2ccnn2c(O)c1Oc1ccc(F)c(Cl)c1 [Example 63, 6-(3-Chloro-4-fluorophenoxy)-5-ethyl-pyrazolo[1,5-a]pyrimidin-7-ol] | 0.01 to 0.1
COC(=O)c1nc2ccnn2c(O)c1Cc1cccc(Cl)c1 [Example 81, Methyl 6-[(3-chlorophenyl)methyl]-7-hydroxypyrazolo[1,5-a]pyrimidine-5-carboxylate] | < 0.01
Cc1noc(Cc2nc3ccnn3c(O)c2Cc2ccc(Cl)cc2)n1 [Example 98, 6-[(4-Chlorophenyl)methyl]-5-[(3-methyl-1,2,4-oxadiazol-5-yl)methyl]pyrazolo[1,5-a]-pyrimidin-7-ol] | 0.1 to 1
CCOC(=O)c1nc2ccnn2c(O)c1Oc1ccc(Cl)c(F)c1 [Example 75, Ethyl 6-(4-chloro-3-fluorophenoxy)-7-hydroxypyrazolo[1,5-a]pyrimidine-5-carboxylate] | 0.01 to 0.1
CCc1nc2ccnn2c(O)c1Cc1ccc(F)c(Cl)c1 [Example 14, 6-[(3-Chloro-4-fluorophenyl)methyl]-5-ethylpyrazolo[1,5-a]pyrimidin-7-ol] | < 0.01
Cc1nc2ccnn2c(O)c1Cc1cccc(F)c1F [Example 7, 6-[(2,3-Difluorophenyl)methyl]-5-methyl-pyrazolo[1,5-a]pyrimidine-7-ol] | 0.1 to 1
Cc1nc2c(C(=O)N3CCOCC3)cnn2c(O)c1Cc1ccc(C(F)(F)F)cc1 [Example 114] | 0.1 to 1
CC(C)OC(=O)c1nc2ccnn2c(O)c1Cc1ccc(Cl)c(F)c1 [Example 88, Propan-2-yl6-[(4-chloro-3-fluorophenyl)methyl]-7-hydroxypyrazolo[1,5-a]pyrimidine-5-carboxylate] | < 0.01
Cc1nc2ccnn2c(O)c1N(C)c1cccc(F)c1 [Example 80, 6-[(3-Fluorophenyl)(methyl)amino]-5-methylpyrazolo[1,5-a]pyrimidin-7-ol] | 0.1 to 1
CC(C)OC(=O)c1nc2ccnn2c(O)c1Cc1ccc(Cl)c(Cl)c1 [Example 84, Propan-2-yl 6-[(3,4-dichlorophenyl)-methyl]-7-hydroxy pyrazolo[1,5-a]-pyrimidine-5-carboxylate] | < 0.01
COc1cccc(Cc2c(C)nc3ccnn3c2O)c1 [Example 10, 6-[(3-Methoxyphenyl)methyl]-5-methyl-pyrazolo[1,5-a]pyrimidin-7-ol] | 0.1 to 1
CCN(c1cccc(F)c1)c1c(C)nc2ccnn2c1O [Example 79, 6-[Ethyl(3-fluorophenyl)amino]-5-methylpyrazolo[1,5-a]pyrimidin-7-ol] | 0.1 to 1
Oc1c(Cc2ccc(Cl)c(F)c2)c(C2CC2)nc2ccnn12 [Example 27, 6-[(4-Chloro-3-fluorophenyl)methyl]-5-cyclopropylpyrazolo[1,5-a]pyrimidin-7-ol] | < 0.01
COCCCNC(=O)c1cnn2c(O)c(Cc3ccccc3)c(C)nc12 [Example 112, 6-Benzyl-7-hydroxy-N-(3-methoxypropyl)-5-methylpyrazolo[1,5-a] pyrimidine-3-carboxamide] | 0.1 to 1
CCOC(=O)c1nc2ccnn2c(O)c1Oc1ccc(Cl)c(Cl)c1 [Example 76, Ethyl 6-(3,4-dichlorophenoxy)-7-hydroxy-pyrazolo[1,5-a]pyrimidine-5-carboxylate] | 0.01 to 0.1
CC(C)c1nc2ccnn2c(O)c1Oc1ccc(Cl)c(F)c1 [Example 67, 6-(4-Chloro-3-fluorophenoxy)-5-(propan-2-yl)pyrazolo[1,5-a]pyrimidin-7-ol] | < 0.01
Cc1nc2c(C(=O)N3CCN(C)CC3)cnn2c(O)c1Cc1ccc(Cl)cc1 [Example 104, 6-[(4-Chlorophenyl)methyl]-5-methyl-3-[(4-methylpiperazin-1-yl)carbonyl]pyrazolo [1,5-a]pyrimidin-7-ol] | 0.1 to 1

same assay, conditions: agonist positive control

Molecule | EC50 [µM] | concentration giving maximal response [nM]
MCP-1: human recombinant MCP-1, positive control (agonist) of the CCR2 functional assay | 0.003 to 0.005 | 30
